Reference: US20130079408A1, “PERACID AND 2-HYDROXY ORGANIC ACID COMPOSITIONS AND METHODS FOR TREATING ITEMS” (Fresh Express Incorporated, priority 2009, published 2013)

What was measured:
[1] = test system: indigenous microorganisms (Aerobic Plate Counts); type: cell-based
[2] = test system: Pseudomonas aeruginosa (ATCC 9027); experiment: Non-food surface coupon test (Example 6); type: cell-based; details: 90 sec residence time
[3] = 40 C; cited from earlier work
[4] = test system: Lactobacillus plantarum 14917; experiment: Suspended cells challenge test at 20 s residence time, no surfactant (Example 2); type: cell-based; details: Peroxyacetic acid 0 ppm
E. coli K12 = experiment: Attached cells challenge test on produce leaves (Example 1); type: cell-based; details: PAA 0 ppm, 45 F, 45 s
Listeria innocua = experiment: as above; type: cell-based; details: PAA 0 ppm, 45 F, 45 s
[5] = test system: Listeria innocua ATCC 33090; experiment: Suspended cells challenge test at 20 s residence time, no surfactant (Example 2); type: cell-based; details: Peroxyacetic acid 0 ppm

## CC(=O)OO [Peroxyacetic acid, peroxyacetic acid]
[1]
  Aerobic Plate Counts Log Reduction: 0.7 Log cfu/g
  Aerobic Plate Counts after wash: 2.7 Log cfu/g
  log10 reduction of indigenous microorganism on the Romaine leaf: 0.7 log10
[2]; PA 60 ppm, LA 0 ppm
  Log reductions, attached on glass coupons: 0.2
  Log reductions, attached on plastic coupons: 1.2
  Log reductions, attached on stainless steel coupons: 1.5
[2]; PA 80 ppm, LA 0 ppm
  Log reductions, attached on glass coupons: 0.0
  Log reductions, attached on plastic coupons: 0.9
[2]; PA 100 ppm, LA 0 ppm
  Log reductions, attached on stainless steel coupons: 1.4
  Log reductions, attached on wood coupons: 1.0
[2]; PA 140 ppm, LA 0 ppm
  Log reductions, attached on wood coupons: 0.8
[3]
  apparent equilibrium constant Kap: about 2.21

## CC(O)C(=O)O (centres unmarked) [Lactic acid, lactic acid]
[4]; Lactic Acid 2000 ppm
  log reduction of suspended Lactobacillus plantarum cells: 0.00
[4]; Lactic Acid 2500 ppm
  log reduction of suspended Lactobacillus plantarum cells: 0.02
[4]; Lactic Acid 3000 ppm
  log reduction of suspended Lactobacillus plantarum cells: 0.01
E. coli K12; LA 0.6%
  Attached E. Coli, Romaine: 0.24
  Attached E. Coli, Spinach: 0.09
E. coli K12; LA 0.9%
  Attached E. Coli, Romaine: 0.37
  Attached E. Coli, Spinach: 0.42
E. coli K12; LA 1.2%
  Attached E. Coli, Romaine: 1.28
  Attached E. Coli, Spinach: 0.81
[2]; PA 0 ppm, LA 1,250 ppm
  Log reductions, attached on glass coupons: 0.4
  Log reductions, attached on stainless steel coupons: 1.6
[2]; PA 0 ppm, LA 2,500 ppm
  Log reductions, attached on glass coupons: 1.7
  Log reductions, attached on plastic coupons: 0.6
  Log reductions, attached on stainless steel coupons: 1.9
  Log reductions, attached on wood coupons: 1.4
[2]; PA 0 ppm, LA 5,000 ppm
  Log reductions, attached on plastic coupons: 1.2
[2]; PA 0 ppm, LA 7,500 ppm
  Log reductions, attached on wood coupons: 3.6
Listeria innocua; LA 0.6%
  Attached Listeria, Romaine: 1.1
  Attached Listeria, Spinach: 0.1
Listeria innocua; LA 0.9%
  Attached Listeria, Romaine: 1.4
  Attached Listeria, Spinach: 0.2
Listeria innocua; LA 1.2%
  Attached Listeria, Romaine: 1.5
  Attached Listeria, Spinach: 0.2
[5]; Lactic Acid 2000 ppm
  log reduction of suspended Listeria innocua cells: 0.08
[5]; Lactic Acid 2500 ppm
  log reduction of suspended Listeria innocua cells: 0.19
[5]; Lactic Acid 3000 ppm
  log reduction of suspended Listeria innocua cells: 0.05
